The values below come from patent EP2326172B1, “ANTIFUNGAL AGENTS” (Scynexis, Inc., priority 2008, dated 2010).

Each structure is given as a SMILES string.

T1 sequence (O13428 1-1897): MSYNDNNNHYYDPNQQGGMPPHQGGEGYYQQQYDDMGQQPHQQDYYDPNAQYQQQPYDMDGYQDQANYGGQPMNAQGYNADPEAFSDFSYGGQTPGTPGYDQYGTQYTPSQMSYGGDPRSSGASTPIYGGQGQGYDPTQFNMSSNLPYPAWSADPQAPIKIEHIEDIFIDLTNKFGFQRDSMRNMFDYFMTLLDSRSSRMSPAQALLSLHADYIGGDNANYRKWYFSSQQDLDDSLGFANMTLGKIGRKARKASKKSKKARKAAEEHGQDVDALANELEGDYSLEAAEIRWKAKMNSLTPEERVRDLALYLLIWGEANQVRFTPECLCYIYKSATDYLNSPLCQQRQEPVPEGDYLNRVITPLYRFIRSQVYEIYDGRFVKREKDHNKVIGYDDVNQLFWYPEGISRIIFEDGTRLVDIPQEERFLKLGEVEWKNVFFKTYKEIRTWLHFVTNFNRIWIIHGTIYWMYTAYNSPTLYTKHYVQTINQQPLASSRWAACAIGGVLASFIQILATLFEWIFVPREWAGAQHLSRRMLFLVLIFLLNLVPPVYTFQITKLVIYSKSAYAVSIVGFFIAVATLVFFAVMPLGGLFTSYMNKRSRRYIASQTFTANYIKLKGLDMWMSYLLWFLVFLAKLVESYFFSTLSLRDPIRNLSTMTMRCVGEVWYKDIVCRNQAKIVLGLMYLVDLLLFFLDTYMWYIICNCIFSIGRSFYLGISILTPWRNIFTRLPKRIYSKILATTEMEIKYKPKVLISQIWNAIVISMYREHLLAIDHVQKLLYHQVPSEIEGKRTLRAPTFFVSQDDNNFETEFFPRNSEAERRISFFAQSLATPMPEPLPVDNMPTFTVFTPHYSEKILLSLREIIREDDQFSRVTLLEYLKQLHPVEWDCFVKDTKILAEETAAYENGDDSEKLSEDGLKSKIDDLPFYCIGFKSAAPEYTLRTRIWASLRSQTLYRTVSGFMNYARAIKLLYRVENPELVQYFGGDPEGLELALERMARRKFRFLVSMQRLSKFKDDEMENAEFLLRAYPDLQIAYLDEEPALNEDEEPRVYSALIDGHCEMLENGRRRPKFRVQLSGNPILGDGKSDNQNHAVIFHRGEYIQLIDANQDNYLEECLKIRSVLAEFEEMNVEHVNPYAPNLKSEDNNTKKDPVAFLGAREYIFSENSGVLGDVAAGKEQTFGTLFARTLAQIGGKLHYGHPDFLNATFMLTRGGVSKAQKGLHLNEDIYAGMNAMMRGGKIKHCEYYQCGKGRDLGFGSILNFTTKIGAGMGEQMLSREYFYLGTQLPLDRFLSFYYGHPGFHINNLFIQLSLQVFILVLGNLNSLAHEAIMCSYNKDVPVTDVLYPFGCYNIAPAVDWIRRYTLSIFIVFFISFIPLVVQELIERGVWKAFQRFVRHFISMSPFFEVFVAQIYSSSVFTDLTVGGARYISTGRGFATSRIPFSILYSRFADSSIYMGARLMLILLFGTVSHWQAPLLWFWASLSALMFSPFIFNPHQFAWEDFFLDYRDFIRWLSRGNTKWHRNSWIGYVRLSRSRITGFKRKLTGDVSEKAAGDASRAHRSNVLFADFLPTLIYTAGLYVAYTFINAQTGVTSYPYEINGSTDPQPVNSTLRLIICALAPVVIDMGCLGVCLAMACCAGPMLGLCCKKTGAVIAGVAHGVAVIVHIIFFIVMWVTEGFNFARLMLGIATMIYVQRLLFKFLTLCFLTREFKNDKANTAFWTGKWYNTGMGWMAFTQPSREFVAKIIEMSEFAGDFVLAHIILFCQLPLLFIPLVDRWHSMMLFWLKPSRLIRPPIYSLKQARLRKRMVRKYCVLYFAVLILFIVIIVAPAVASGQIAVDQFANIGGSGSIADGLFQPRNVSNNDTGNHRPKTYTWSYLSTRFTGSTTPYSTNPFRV
T1 sequence (O42825 1-195 partner limits assumed): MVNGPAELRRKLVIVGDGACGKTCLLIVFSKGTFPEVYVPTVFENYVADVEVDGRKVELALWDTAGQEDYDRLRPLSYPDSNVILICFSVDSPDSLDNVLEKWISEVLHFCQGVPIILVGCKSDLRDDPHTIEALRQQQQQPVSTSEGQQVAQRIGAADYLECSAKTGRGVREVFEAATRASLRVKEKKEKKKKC

The first experiment concerns the target T1, glucan synthase (GS) (Candida albicans, UniProt O13428).
T1 construct: Extraction of GS activity from membranes was performed at a protein concentration of 5 mg/mL in extraction buffer; endogenous in cells; host or cells: Candida albicans MY1055 (membrane fraction, detergent extract, product entrapment)
Kind of experiment: Glucan synthase inhibition (polymerization assay, 96-well, 3H-UDPG incorporation).
Details: not given
The experiment is classed as biochemical. The method, then:
The in vitro evaluation of glucan synthase inhibitory activity of compounds was measured in a polymerization assay in 96-well format. Each well contained 100 µL of ^3H-UDPG at 0.5 mM (6000 to 8000 dpm/nmol), 50 mM HEPES pH 7.5 (Sigma), 10% w/v glycerol (Sigma), 1.5 mg/mL bovine serum albumin (Sigma A 9647. Lot 44H0190), 25 mM KF (Fisher), 1 mM EDTA (Gibco ULTRAPURE), 25 µM GTP-γ-S, enzyme sufficient to give 3 to 6 nmoles incorporation during the 60 min incubation at 22°C, and test compound added from wells in 3-fold serial dilutions in 100% DMSO (1 µL/well). The reaction was stopped by the addition of 100 µL of 20% trichloroacetic acid. Plates were chilled for a minimum of 10 min, and precipitated glucan collected by filtration on GF/C plates (Packard UNIFILTER®-96), washed with 5 cycles of water (about 1 mL/well each cycle) using a Packard FILTERMATE HARVESTER. 40 µL/well scintillation fluid (Packard ULTIMA GOLD TM-XR) was added and the sealed plates counted in a WALLAC BETA counter in top-counting mode at an efficiency of approximately 40%.
Stock solutions were stored at 10 mg/mL in DMSO at -20°C. For each new enzyme preparation, the initial titration performed started at 1 mg/mL, which was prepared by making a 10-fold dilution in DMSO (5 µL to 50 µL). 40 µL of this stock was placed in column 12 of a round-bottomed 96-well microtiter plate. 40 µL DMSO was added to columns 1 to 11 in the same row and ten 3-fold serial dilutions performed, by transferring 20 µL from column 12 to column 11 etc., with 4 mixings before each transfer. No test compound was transferred to from column 2 to column 1. Duplicate aliquots of 1 µL of all 12 dilutions were then transferred to the side walls of a 96-well Bioblock 1.1 mL plate (Fisher brand) to create two rows.
Graphs of the primary data were created in PRISM software (the average of two determinations) using PRISM's curve fitting program (sigmoidal dose response non-linear regression). The amount of compound required to inhibit glucan synthase activity by 50% in this assay (IC50 - ng/mL) was calculated.
Routine analysis was performed with glucan synthase (GS) prepared from Candida albicans MY1055 by the following procedure: MY1055 was grown in 10 liters YPD medium (10 g yeast extract, 20 g tryptone, 20 g glucose per liter) with vigorous shaking at 30°C, to early stationary phase. Cells were harvested by centrifugation, the pellet was washed and frozen at -70°C until breakage. Thawed pellets were shaken with an equal volume of breakage buffer (50 mM HEPES pH 7.4, 10% glycerol, 1 mM EDTA, 1 mM PMSF, 1mM DTT) and 4 times their weight of 0.5 mm acid washed glass beads for 2 hours at 4°C. Extent of breakage was assessed visually at 40x magnification. After low speed centrifugation to remove cell debris, the supernatant was centrifuged at 100,000 x g for 60 min. to separate membranes plus ribosomes from cytoplasmic components. Membranes were further washed two additional times with breakage buffer using the same centrifugation conditions and finally suspended in breakage buffer at 25 to 30 mg/mL protein (Biorad) for storage at -70°C. Extraction of GS activity from membranes was performed at a protein concentration of 5 mg/mL in extraction buffer (50mM NaPO4 pH 7.5, 0.1 M KCl, 0.1M Na citrate, 20% glycerol, 5 µM GTP-γ-S, 1mM DTT, 1 mM PMSF, 3 µg/mL pepstatin) plus 0.25% W1 by gentle mixing at 4°C for 60 min, followed by centrifugation at 100,000 x g for 60 min. After centrifugation, clear supernatant was removed from a pellet consisting of a hard layer usually with small amounts of gelatinous unextracted membranes above it.
Trapping was initiated immediately by 5-fold dilution in trapping buffer (50 mM HEPES pH 7.5, 10 mM KF, 1 mM EDTA, 2 mg/mL BSA) plus 2.5 mM UDPG and 10µM GTP-γ-S. After incubation at 25°C for 60 to 90 minutes, glucan was harvested by low speed centrifugation (3,000 x g, 10 min). […]
As for `CC(C)[C@@H](C)[C@@]1(C)CC[C@]2(C)[C@H]3CC[C@@H]4[C@@]5(COC[C@@]4(C)[C@@H](OC[C@](C)(N)C(C)(C)C)[C@H](n4ncnc4-c4ccncc4)C5)C3=CC[C@@]2(C)[C@@H]1C(=O)O` [Example 173, (1S,4aR,6aS,7R,8R,10aR,10bR,12aR,14R,15R)-15-[[(2R)-2-amino-2,3,3-trimethylbutyl]oxy]-8-[(1R)-1,2-dimethylpropyl]-14-[5-(4-pyridinyl)-1H-1,2,4-triazol-1-yl]-1,6,6a,7,8,9,10,10a,10b,11,12,12a-dodecahydro-1,6a,8,10a-tetramethyl-4H-1,4a-propano-2H-phenanthro[1,2-c]pyran-7-carboxylic acid], the IC50 is 0.822 nM.

Staying with this experiment, now noted: glucan synthase prepared from Candida albicans MY1055; 60 min incubation at 22°C; read-out: Candida Albicans GS IC50 (ng/mL) (converted).
Regarding `CNC(=O)c1ncnn1[C@@H]1C[C@@]23COC[C@](C)([C@@H]2CC[C@H]2C3=CC(=O)[C@@]3(C)[C@H](C(=O)O)[C@@](C)([C@H](C)C(C)C)CC[C@]23C)[C@H]1OC[C@](C)(NC)C(C)C` [Example 40, (1S,4aR,6aS,7R,8R,10aR,10bR,12aR,14R,15R)-15-[[(2R)-2,3-dimethyl-2-(methylamino)butyl]oxy]-8-[(1R)-1,2-dimethylpropyl]-14-[5-[(methylamino)carbonyl]-1H-1,2,4-triazol-1-yl]-1,6,6a,7,8,9,10,10a,10b,11,12,12a-dodecahydro-1,6a,8,10a-tetramethyl-6-oxo-4H-1,4a-propano-2H-phenanthro[1,2-c]pyran-7-carboxylic acid], the IC50 is 24.9 nM.

As to `CCN[C@@](C)(CO[C@H]1[C@H](n2ncnc2C(N)=O)C[C@@]23COC[C@]1(C)[C@@H]2CC[C@H]1C3=CC[C@@]2(C)[C@H](C(=O)O)[C@@](C)([C@H](C)C(C)C)CC[C@]12C)C(C)C` [Example 43, (1S,4aR,6aS,7R,8R,10aR,10bR,12aR,14R,15R)-14-[5-(aminocarbonyl)-1H-1,2,4-triazol-1-yl]-8-[(1R)-1,2-dimethylpropyl]-15-[[(2R)-2-(ethylamino)-2,3-dimethylbutyl]oxy]-1,6,6a,7,8,9,10,10a,10b,11,12,12a-dodecahydro-1,6a,8,10a-tetramethyl-4H-1,4a-propano-2H-phenanthro[1,2-c]pyran-7-carboxylic acid], the IC50 was 15.5 nM.

Regarding `CNC1(CO[C@H]2[C@H](n3ncnc3C(N)=O)C[C@@]34COC[C@]2(C)[C@@H]3CC[C@H]2C4=CC[C@@]3(C)[C@H](C(=O)O)[C@@](C)([C@H](C)C(C)C)CC[C@]23C)CCOCC1` [Example 46, (1S,4aR,6aS,7R,8R,10aR,10bR,12aR,14R,15R)-14-[5-(aminocarbonyl)-1H-1,2,4-triazol-1-yl]-8-[(1R)-1,2-dimethylpropyl]-15-[[tetrahydro-4-(methylamino)-2H-pyran-4-yl]methoxy]-1,6,6a,7,8,9,10,10a,10b,11,12,12a-dodecahydro-1,6a,8,10a-tetramethyl-4H-1,4a-propano-2H-phenanthro[1,2-c]pyran-7-carboxylic acid], the IC50 is 8.45 nM.

Turning to `CC(C)[C@@H](C)[C@@]1(C)CC[C@]2(C)[C@H]3CC[C@@H]4[C@@]5(COC[C@@]4(C)[C@@H](OC[C@](C)(N)C(C)C)[C@H](n4ncnc4C(=O)N(C)C)C5)C3=CC[C@@]2(C)[C@@H]1C(=O)O` [Example 50, (1S,4aR,6aS,7R,8R,10aR,10bR,12aR,14R,15R)-15-[[(2R)-2-amino-2,3-dimethylbutyl]oxy]-14-[5-[(dimethylamino)carbonyl]-1H-1,2,4-triazol-1-yl]-8-[(1R)-1,2-dimethylpropyl]-1,6,6a,7,8,9,10,10a,10b,11,12,12a-dodecahydro-1,6a,8,10a-tetramethyl-4H-1,4a-propano-2H-phenanthro[1,2-c]pyran-7-carboxylic acid], the IC50 is 12.7 nM.

As to `CCCN[C@@](C)(CO[C@H]1[C@H](n2ncnc2C(=O)NC)C[C@@]23COC[C@]1(C)[C@@H]2CC[C@H]1C3=CC[C@@]2(C)[C@H](C(=O)O)[C@@](C)([C@H](C)C(C)C)CC[C@]12C)C(C)C` [Example 53, (1S,4aR,6aS,7R,8R,10aR,10bR,12aR,14R,15R)-8-[(1R)-1,2-dimethylpropyl]-15-[[(2R)-2,3-dimethyl-2-(propylamino)butyl]oxy]-14-[5-[(methylamino)carbonyl]-1H-1,2,4-triazol-1-yl]-1,6,6a,7,8,9,10,10a,10b,11,12,12a-dodecahydro-1,6a,8,10a-tetramethyl-4H-1,4a-propano-2H-phenanthro[1,2-c]pyran-7-carboxylic acid], the IC50 is 42 nM.

As for `CC(C)NC(=O)c1ncnn1[C@@H]1C[C@@]23COC[C@](C)([C@@H]2CC[C@H]2C3=CC[C@@]3(C)[C@H](C(=O)O)[C@@](C)([C@H](C)C(C)C)CC[C@]23C)[C@H]1OC[C@](C)(N)C(C)(C)C` [Example 93, (1S,4aR,6aS,7R,8R,10aR,10bR,12aR,14R,15R)-15-[[(2R)-2-amino-2,3,3-trimethylbutyl]oxy]-8-[(1R)-1,2-dimethylpropyl]-14-[5-[[(1-methylethyl)amino]carbonyl]-1H-1,2,4-triazol-1-yl]-1,6,6a,7,8,9,10,10a,10b,11,12,12a-dodecahydro-1,6a,8,10a-tetramethyl-4H-1,4a-propano-2H-phenanthro[1,2-c]pyran-7-carboxylic acid], the IC50 was 20.3 nM.

As to `CCC(N)(CC)CO[C@H]1[C@H](n2ncnc2C(=O)NC)C[C@@]23COC[C@]1(C)[C@@H]2CC[C@H]1C3=CC[C@@]2(C)[C@H](C(=O)O)[C@@](C)([C@H](C)C(C)C)CC[C@]12C` [Example 101, (1S,4aR,6aS,7R,8R,10aR,10bR,12aR,14R,15R)-15-(2-amino-2-ethylbutoxy)-8-[(1R)-1,2-dimethylpropyl]-14-[5-[(methylamino)carbonyl]-1H-1,2,4-triazol-1-yl]-1,6,6a,7,8,9,10,10a,10b,11,12,12a-dodecahydro-1,6a,8,10a-tetramethyl-4H-1,4a-propano-2H-phenanthro[1,2-c]pyran-7-carboxylic acid], the IC50 is 18.7 nM.

Take `CN[C@@](C)(CO[C@H]1[C@H](n2ncnc2-c2ccncc2)C[C@@]23COC[C@]1(C)[C@@H]2CC[C@H]1C3=CC[C@@]2(C)[C@H](C(=O)O)[C@@](C)([C@H](C)C(C)C)CC[C@]12C)C(C)(C)C` [Example 174, (1S,4aR,6aS,7R,8R,10aR,10bR,12aR,14R,15R)-8-[(1R)-1,2-dimethylpropyl]-14-[5-(4-pyridinyl)-1H-1,2,4-triazol-1-yl]-15-[[(2R)-2,3,3-trimethyl-2-(methylamino)butyl]oxy]-1,6,6a,7,8,9,10,10a,10b,11,12,12a-dodecahydro-1,6a,8,10a-tetramethyl-4H-1,4a-propano-2H-phenanthro[1,2-c]pyran-7-carboxylic acid]: the IC50 was 2.69 nM.

On to `CNC1(CO[C@H]2[C@H](n3ncnc3-c3ccncc3)C[C@@]34COC[C@]2(C)[C@@H]3CC[C@H]2C4=CC[C@@]3(C)[C@H](C(=O)O)[C@@](C)([C@H](C)C(C)C)CC[C@]23C)CCOCC1` [Example 181, (1S,4aR,6aS,7R,8R,10aR,10bR,12aR,14R,15R)-8-[(1R)-1,2-dimethylpropyl]-14-[5-(4-pyridinyl)-1H-1,2,4-triazol-1-yl]-15-[[tetrahydro-4-(methylamino)-2H-pyran-4-yl]methoxy]-1,6,6a,7,8,9,10,10a,10b,11,12,12a-dodecahydro-1,6a,8,10a-tetramethyl-4H-1,4a-propano-2H-phenanthro[1,2-c]pyran-7-carboxylic acid], for which the IC50 was 10.8 nM.
